Results reported in ChEMBL document CHEMBL1201862, “PubChem BioAssay data set” (2004).
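Method: 48-hour compound exposure of cells in 96-well plates, five concentrations, linear interpolation of endpoints. The concentration for 50% growth inhibition is given as GI50.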 Calls of active or inactive are those of the source. Rule as the data show it: active = GI50 up to about 1.1 µM and inactive = higher.

Legend:
Experiment in all cases: inhibition of tumour cell growth, NCI panel, 48 h
CAKI-1 = tested on: CAKI-1
SNB-75 = tested on: SNB-75
UACC-62 = tested on: UACC-62
HCT-116 = tested on: HCT-116
SNB-19 = tested on: SNB-19
NCI/ADR-RES = tested on: NCI/ADR-RES
PC-3 = tested on: PC-3
SF-268 = tested on: SF-268
SK-MEL-28 = tested on: SK-MEL-28
A549 = tested on: A549
TK-10 = tested on: TK-10
COLO 205 = tested on: COLO 205
ACHN = tested on: ACHN
K562 = tested on: K562
HOP-62 = tested on: HOP-62
SK-MEL-2 = tested on: SK-MEL-2
LOX IMVI = tested on: LOX IMVI
NCI-H522 = tested on: NCI-H522
MDA-MB-231 = tested on: MDA-MB-231
IGROV-1 = tested on: IGROV-1
A498 = tested on: A498
786-0 = tested on: 786-0
MDA-N = tested on: MDA-N
OVCAR-3 = tested on: OVCAR-3
NCI-H226 = tested on: NCI-H226
BT-549 = tested on: BT-549
EKVX = tested on: EKVX
DU-145 = tested on: DU-145
SK-MEL-5 = tested on: SK-MEL-5
SF-539 = tested on: SF-539
OVCAR-5 = tested on: OVCAR-5
SW-620 = tested on: SW-620
SR = tested on: SR
CCRF-CEM = tested on: CCRF-CEM
OVCAR-4 = tested on: OVCAR-4
U-251 = tested on: U-251
SN12C = tested on: SN12C
SF-295 = tested on: SF-295
MOLT-4 = tested on: MOLT-4
NCI-H23 = tested on: NCI-H23
RXF 393 = tested on: RXF 393
KM12 = tested on: KM12
HT-29 = tested on: HT-29
HCC 2998 = tested on: HCC 2998
HCT-15 = tested on: HCT-15
SK-OV-3 = tested on: SK-OV-3
M14 = tested on: M14
OVCAR-8 = tested on: OVCAR-8
MCF7 = tested on: MCF7
UO-31 = tested on: UO-31
T47D = tested on: T47D
Malme-3M = tested on: Malme-3M
UACC-257 = tested on: UACC-257
MDA-MB-435 = tested on: MDA-MB-435
HOP-92 = tested on: HOP-92
NCI-H460 = tested on: NCI-H460

Measured: GI50

CCCCOC(C)(C)/C=C/C(O)[C@](C)(O)[C@H]1[C@H](O)C[C@@]2(C)[C@@H]3CCc4c(cc(OC5OC(CO)C(O)C(O)C5O)c(O)c4C)C3(C)C(=O)C[C@]12C (stereo partly specified)
> 100 µM: HCT-15
inactive: CAKI-1 > 100 µM | SNB-75 > 100 µM | UACC-62 > 100 µM | HCT-116 > 100 µM | SNB-19 > 100 µM | NCI/ADR-RES > 100 µM | PC-3 > 100 µM | SF-268 > 100 µM | SK-MEL-28 > 100 µM | A549 > 100 µM | TK-10 > 100 µM | COLO 205 > 100 µM | ACHN > 100 µM | K562 > 100 µM | HOP-62 > 100 µM | SK-MEL-2 > 100 µM | LOX IMVI > 100 µM | NCI-H522 > 100 µM | MDA-MB-231 > 100 µM | IGROV-1 > 100 µM | A498 > 100 µM | 786-0 > 100 µM | MDA-N > 100 µM | OVCAR-3 > 100 µM | NCI-H226 > 100 µM | BT-549 > 100 µM | EKVX > 100 µM | DU-145 > 100 µM | SK-MEL-5 > 100 µM | SF-539 > 100 µM | OVCAR-5 > 100 µM | SW-620 > 100 µM | SR > 100 µM | CCRF-CEM > 100 µM | OVCAR-4 > 100 µM | U-251 > 100 µM | SN12C > 100 µM | SF-295 > 100 µM | MOLT-4 > 100 µM | NCI-H23 > 100 µM | RXF 393 > 100 µM | KM12 > 100 µM | HT-29 > 100 µM | HCC 2998 > 100 µM | SK-OV-3 > 100 µM | M14 > 100 µM | OVCAR-8 > 100 µM | MCF7 > 100 µM | UO-31 > 100 µM | T47D > 100 µM | Malme-3M > 100 µM | UACC-257 > 100 µM | MDA-MB-435 > 100 µM | HOP-92 > 100 µM | NCI-H460 > 100 µM
